Measurements as given in patent US9597407B2, “Targeted antimicrobial moieties” (C3 Jian, Inc., priority 2009, dated 2017).
“Also recorded” adds a separate entry of the source. Square brackets hold non-standard residues; d marks the D form. Ends that are not written are not given here. Aib = CC(C)(N)C(=O)O

What follows are substances tested on bacteria (assay: Binding of targeting peptides to microorganisms (Table 3)). Conditions: microorganism the targeting peptide binds; binding in aqueous buffers that varied with peptide solubility, preferably 1x PBS.

Row | Substance | Target(s)
1 | PF-S024 (SKRGRKRKDRRKKKANHGKRPNS; Peptide with targeting and/or antimicrobial activity) | Corynebacteria

Same assay, conditions: peptide binding in aqueous buffers that varied depending on peptide solubility; preferably 1x PBS

Row | Substance | Target(s) (microorganism bound by the targeting peptide)
2 | PF-773 (TLKESK; Peptide with targeting and/or antimicrobial activity) | S. epidermidis; also recorded: C. albicans; also recorded: C. jeikeium
3 | PF-777 (PGADGKLAEASAAIARLVRS; Peptide with targeting and/or antimicrobial activity) | Mycobacteria spp.
4 | PF-778 (MNLILTAHGT; Peptide with targeting and/or antimicrobial activity) | Mycobacteria spp.
5 | PF-779 (IYGDFFNFYLCDISLKVNGLQPGGPVRTVKLFGQPTGRCTPQ; Peptide with targeting and/or antimicrobial activity) | Mycobacteria spp.
6 | PF-780 (AVYDALVALAAAEHRAELATRDARAKDTYEKIGVHVVVAA; Peptide with targeting and/or antimicrobial activity) | Mycobacteria spp.
7 | PF-781 (PLVVVNHRRAERSRG; Peptide with targeting and/or antimicrobial activity) | Mycobacteria spp.
8 | PF-782 (TGPRRGIDLTSNRALSEVLDEGLELNSRK; Peptide with targeting and/or antimicrobial activity) | Mycobacteria spp.
9 | PF-783 (FTSEVRGVFTYRVNKAGLITNMRGYWNLDMMTFGNQE; Peptide with targeting and/or antimicrobial activity) | Mycobacteria spp.
10 | PF-784 (MAMTTVDNIVGLVIAVALMAFLFAALLFPEKF; Peptide with targeting and/or antimicrobial activity) | Mycobacteria spp.
11 | PF-785 (MRPQHSPAGKAFVVKKITHEQS; Peptide with targeting and/or antimicrobial activity) | Mycobacteria spp.
12 | PF-786 (LSERERRRLKRGII; Peptide with targeting and/or antimicrobial activity) | Mycobacteria spp.
13 | PF-787 (MTERQRRALLKQHPEVVSWSDYLEKRKRRTGTAG; Peptide with targeting and/or antimicrobial activity) | Mycobacteria spp.
14 | PF-788 (GLITVFAGTARILQLRRAAKKTHAAALR; Peptide with targeting and/or antimicrobial activity) | Mycobacteria spp.
15 | PF-789 (PRGAQSGHG; Peptide with targeting and/or antimicrobial activity) | Mycobacteria spp.
16 | PF-790 (PAGPDHLDQRDHR; Peptide with targeting and/or antimicrobial activity) | Mycobacteria spp.
17 | PF-791 (IFLTTQNTDYSEHNAA; Peptide with targeting and/or antimicrobial activity) | S. mutans
18 | PF-792 (ALHASGIQAI; Peptide with targeting and/or antimicrobial activity) | S. mutans
19 | PF-793 (YTQ[Aib]NNASAYAMLLTNKDTVP; ends and bridges not checked) | S. mutans
20 | PF-794 (NLYFENQGN; Peptide with targeting and/or antimicrobial activity) | S. mutans
21 | PF-795 (ALHKSGIQVIADWVPDQIYN; Peptide with targeting and/or antimicrobial activity) | S. mutans
22 | PF-796 (YTQSNIPTAYALMLSNKDSI; Peptide with targeting and/or antimicrobial activity) | S. mutans
23 | PF-797 (WYYFDNNGYM; Peptide with targeting and/or antimicrobial activity) | S. mutans
24 | PF-798 (ALHSKGIKVMADWVPDQMYA; Peptide with targeting and/or antimicrobial activity) | S. mutans

Row | Substance | Target(s) (microorganism bound by the targeting peptide)
25 | PF-799 (YTHYNTALSYALLLTNKSSVP; Peptide with targeting and/or antimicrobial activity) | S. mutans
26 | PF-800 (WYYFDNNGYM; Peptide with targeting and/or antimicrobial activity) | S. mutans
27 | PF-C003 (FCSVDHDVITIAADHVKQGAEA; Peptide with targeting and/or antimicrobial activity) | A. naeslundii; also recorded: P. gingivalis; also recorded: S. mutans
28 | PF-C008 (AQPRRTWLVNFGEVPSPGLTNDGMPDH; Peptide with targeting and/or antimicrobial activity) | A. naeslundii
29 | PF-C034 (HPMPITVRSRKPGPLTAPSEH; Peptide with targeting and/or antimicrobial activity) | S. mutans; also recorded: E. coli
30 | PF-C045 (FREGMGWPLSNEGSPTAPLPKHRNQV; Peptide with targeting and/or antimicrobial activity) | A. naeslundii; also recorded: T. denticola
31 | PF-C050 (QGLARPVLRRIPL; Peptide with targeting and/or antimicrobial activity) | A. naeslundii; also recorded: S. mutans
32 | PF-C063 (SHFRKGD; Peptide with targeting and/or antimicrobial activity) | A. naeslundii; also recorded: F. nucleatum; also recorded: S. mutans
33 | PF-C068 (LNLFASI; Peptide with targeting and/or antimicrobial activity) | A. naeslundii; also recorded: F. nucleatum; also recorded: S. mutans
34 | PF-C080 (INIPGLF; Peptide with targeting and/or antimicrobial activity) | A. naeslundii; also recorded: F. nucleatum; also recorded: S. mutans
35 | PF-C093 (EKLGTMV; Peptide with targeting and/or antimicrobial activity) | A. naeslundii; also recorded: F. nucleatum; also recorded: S. mutans
36 | PF-C134 (NELMKYPATLTATATTPGIKYSHLCSVCL; Peptide with targeting and/or antimicrobial activity) | A. naeslundii; also recorded: F. nucleatum; also recorded: P. gingivalis; also recorded: S. mutans; also recorded: T. denticola
37 | PF-C160 (AASGFTYCASNGVWHPY; Peptide with targeting and/or antimicrobial activity) | F. nucleatum
38 | PF-C259 (AEIQPHCLSVL; Peptide with targeting and/or antimicrobial activity) | F. nucleatum; also recorded: S. mutans
39 | PF-C271 (FFPSYYSIIITYF; Peptide with targeting and/or antimicrobial activity) | A. naeslundii; also recorded: F. nucleatum; also recorded: P. gingivalis; also recorded: S. mutans; also recorded: T. denticola
40 | PF-C273 (KNMLKRRMKQKRLFDEEDRLRVLSKYTKSYY; Peptide with targeting and/or antimicrobial activity) | A. naeslundii; also recorded: P. gingivalis; also recorded: S. mutans; also recorded: T. denticola
41 | PF-C285 (FTIIELKKQKIKHGENNKKTAHPLNEPFCARA; Peptide with targeting and/or antimicrobial activity) | A. naeslundii; also recorded: F. nucleatum; also recorded: P. gingivalis; also recorded: S. mutans; also recorded: T. denticola
42 | PF-S004 (VLLNIFRTLLEFFSPSNAPGAEDVPLPDTQA; Peptide with targeting and/or antimicrobial activity) | S. epidermidis and MRSA and C. jeikeium
43 | PF-S007 (VVAGVVLLTALAVGSKRKEKKQIKEIQRLLAATR; Peptide with targeting and/or antimicrobial activity) | S. epidermidis and MRSA
44 | PF-S015 (IENLERGARRPP; Peptide with targeting and/or antimicrobial activity) | S. epidermidis and MRSA and C. jeikeium
45 | PF-S018 (GMPQIPRLRI; Peptide with targeting and/or antimicrobial activity) | S. epidermidis and M. luteus and C. albicans and MRSA and E. faecalis and C. jeikeium and C. jejuni
46 | PF-S023 (MAEDERRALKRRTNRGRTRTRKRITV; Peptide with targeting and/or antimicrobial activity) | S. epidermidis and MRSA
47 | PF-S026 (TELKYNGEEYLLLTQRDILAVIEK; Peptide with targeting and/or antimicrobial activity) | S. epidermidis and MRSA and C. jeikeium
